Converted amounts (≈) assume the structure as drawn. Residues, ends and D or L forms follow the SMILES beside them.

This assay deals with P388. Description: Cytotoxicity against mouse P388 cells after 48 hrs by MTT assay. Type of assay: functional, cell-based. To be noted: P388, 48 h. On the technique in general: Tetrazolium assays rely on reduction of a dye to a coloured formazan, in cell work by metabolically active cells.

As for `O=C1CNC(=O)[C@H](Cc2ccc(O)cc2)NC(=O)CNC(=O)[C@@H]2CCCN2C(=O)[C@H](Cc2ccccc2)NC(=O)[C@@H]2CCCN2C(=O)CN1` [YUNNANIN A] (HELM PEPTIDE1{F.P.G.Y.G.G.P}$PEPTIDE1,PEPTIDE1,1:R1-7:R2$$$V2.0), inhibition was half-maximal at 2.1 µg/mL (≈ 3.11 µM) (IC50).
The same measure for `CC[C@H](C)[C@@H]1NC(=O)CNC(=O)[C@@H]2CCCN2C(=O)[C@H](CO)NC(=O)[C@H](Cc2ccc(O)cc2)NC(=O)[C@H](Cc2ccccc2)NC(=O)CNC1=O` [YUNNANIN C] (HELM PEPTIDE1{F.Y.S.P.G.I.G}$PEPTIDE1,PEPTIDE1,1:R1-7:R2$$$V2.0): 2.2 µg/mL (≈ 3.05 µM).

For orientation: IC50 means the midpoint of a concentration-inhibition curve. A higher IC50 goes with a need for much substance.

Values taken from ChEMBL document CHEMBL1158211, “Cyclic peptides from higher plants. 24.1 yunnanin C, a novel cyclic heptapeptide from Stellaria yunnanensis” (J Nat Prod, 1996).
